Laboratory results taken from article PMC5344255, “Design, Synthesis and Biochemical Evaluation of Novel Selective Estrogen Receptor Ligand Conjugates Incorporating an Endoxifen-Combretastatin Hybrid Scaffold” (Biomedicines, 2016).
“And” between values parts separate entries of the source, which are not always exact repeats. Equal values may be shown once. Read-outs that look alike come from different tables or passages of the source. Marks after values point to notes of the source that are not given here.

Tests used:
[1] = tested on: MCF-7 human breast cancer cells; assay: Lactate dehydrogenase (LDH) cytotoxicity assay in MCF-7; assay type: cell-based; conditions: % cell lysis at 10 µM
Outline: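 Cells seeded at 1 × 10^4 per well and grown 24 h, then dosed with compounds over 1 nM–50 μM. Cell lysis quantified as released cytoplasmic LDH using the CytoTox 96 nonradioactive cytotoxicity assay.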

NCI 60 cell lines = assay: NCI 60 cell line screen, values over the panel; assay type: cell-based; conditions: Homo sapiens
HL-60 (TB) = assay: NCI 60 cell line screen; assay type: cell-based, human; conditions: HL-60 (TB) (Leukemia)
K-562 = assay: NCI 60 cell line screen; assay type: cell-based, human; conditions: K-562 (Leukemia)
RPMI-8226 = assay: NCI 60 cell line screen; assay type: cell-based, human; conditions: RPMI-8226 (Leukemia)
EKVX = assay: NCI 60 cell line screen; assay type: cell-based, human; conditions: EKVX (Non-Small Cell Lung Cancer)
HOP-62 = assay: NCI 60 cell line screen; assay type: cell-based, human; conditions: HOP-62 (Non-Small Cell Lung Cancer)
NCI-H226 = assay: NCI 60 cell line screen; assay type: cell-based, human
NCI-H23 = assay: NCI 60 cell line screen; assay type: cell-based
NCI-H460 = assay: NCI 60 cell line screen; assay type: cell-based, human; conditions: NCI-H460 (Non-Small Cell Lung Cancer)
COLO 205 = assay: NCI 60 cell line screen; assay type: cell-based
HCT-2998 = assay: NCI 60 cell line screen; assay type: cell-based, human; conditions: HCT-2998 (Colon Cancer)
HCT-116 = assay: NCI 60 cell line screen; assay type: cell-based, human; conditions: HCT-116 (Colon Cancer)
HT29 = assay: NCI 60 cell line screen; assay type: cell-based, human; conditions: HT29 (Colon Cancer)
KM12 = assay: NCI 60 cell line screen; assay type: cell-based, human; conditions: KM12 (Colon Cancer)
SF-268 = assay: NCI 60 cell line screen; assay type: cell-based, human; conditions: SF-268 (CNS Cancer)
SNB-19 = assay: NCI 60 cell line screen; assay type: cell-based, human; conditions: SNB-19 (CNS Cancer)
SNB-75 = assay: NCI 60 cell line screen; assay type: cell-based, human; conditions: SNB-75 (CNS Cancer)
DU-145 = assay: NCI 60 cell line screen; assay type: cell-based, human; conditions: DU-145 (Prostate cancer)
LOX IMV1 = assay: NCI 60 cell line screen; assay type: cell-based, human; conditions: LOX IMV1 (Melanoma); one-dose 10 µM
M14 = assay: NCI 60 cell line screen; assay type: cell-based, human; conditions: M14 (Melanoma); one-dose 10 µM
SK-MEL-28 = assay: NCI 60 cell line screen; assay type: cell-based, human; conditions: SK-MEL-28 (Melanoma); one-dose 10 µM
UACC-62 = assay: NCI 60 cell line screen; assay type: cell-based, human; conditions: UACC-62 (Melanoma); one-dose 10 µM
A498 = assay: NCI 60 cell line screen; assay type: cell-based
MDA-MB-468 = assay: NCI 60 cell line screen; assay type: cell-based, human; conditions: MDA-MB-468 (Breast Cancer); one-dose 10 µM

`CCC(=C(c1ccc(O)cc1)c1ccc(OCCN(C)C(=O)/C(=C/c2ccc(OC)c(O)c2)c2cc(OC)c(OC)c(OC)c2)cc1)c1ccc(O)cc1` (mixture of isomers) [Compound 28, (E)-N-(2-{4-[(E/Z)-1,2-Bis-(4-hydroxyphenyl)but-1-enyl]-phenoxy}ethyl)-3-(3-hydroxy-4-methoxyphenyl)-N-methyl-2-(3,4,5-trimethoxyphenyl)acrylamide] was tested, and the “% Cell Death at 10 μM” value [1] was 17%, the CC50 (NCI 60 cell lines; in all but 4 cell lines of the panel, read-out: LC50 (the source's name)) was greater than 50000 nM and the GI50 (NCI 60 cell lines; read-out: MG-MID, mean GI50) was 1450 nM. For the same compound, the GI50 (NCI 60 cell lines; read-out: log GI50 (mean) (converted)) was 1620 nM, the inhibition at 10 µM (NCI 60 cell lines; read-out: mean growth inhibition value) was 98.7% and the “GI% (10^−5 M)” value (HL-60 (TB); one-dose 10 µM) was 100 ^d,f %. The GI50 (HL-60 (TB); Homo sapiens, five-dose screen) was 1400 nM, the GI50 (K-562; Homo sapiens, K562, five-dose screen) was 2570 nM and the “GI% (10^−5 M)” value (K-562; one-dose 10 µM) was 86.1%. The GI50 (RPMI-8226; Homo sapiens, five-dose screen) was 896 nM, the “GI% (10^−5 M)” value (RPMI-8226; one-dose 10 µM) was 91% and 90.65% and the “GI% (10^−5 M)” value (EKVX; one-dose 10 µM) was 85.11%. For the same compound, the GI50 (EKVX; Homo sapiens, five-dose screen) was 2010 nM, the “GI% (10^−5 M)” value (HOP-62; one-dose 10 µM) was 81.99% and the GI50 (HOP-62; Homo sapiens, five-dose screen) was 2860 nM. For the same compound, the GI50 (NCI-H226; Homo sapiens, NCI-H226 (Non-Small Cell Lung Cancer), five-dose screen) was 1180 nM, the “GI% (10^−5 M)” value (NCI-H226; NCI-H226 (Non-Small Cell Lung Cancer), one-dose 10 µM) was 100 ^d,g % and the lethality (NCI-H226; NCI-H226, one-dose screen 10 μM) was 73%. For the same compound, the GI50 (NCI-H23; Homo sapiens, NCI-H23) was 2190 nM, the LC50 (NCI-H23; Homo sapiens, NCI-H23, five-dose screen) was 48900 nM and the “GI% (10^−5 M)” value (NCI-H23; NCI-H23 (Non-Small Cell Lung Cancer), one-dose 10 µM) was 97% and 96.76%. The GI50 (NCI-H460; Homo sapiens, five-dose screen) was 1420 nM, the “GI% (10^−5 M)” value (NCI-H460; one-dose 10 µM) was 98% and 98.38% and the “GI% (10^−5 M)” value (COLO 205; COLO 205 (Colon Cancer), one-dose 10 µM) was 100 ^d,i %. The GI50 (COLO 205; Homo sapiens, COLO 205) was 2150 nM, the LC50 (COLO 205; Homo sapiens, COLO 205, five-dose screen) was 26200 nM and the “GI% (10^−5 M)” value (HCT-2998; one-dose 10 µM) was 100 ^d,j %. The GI50 (HCT-2998; Homo sapiens, 60 cell, five-dose screen) was 1250 nM, the “GI% (10^−5 M)” value (HCT-116; one-dose 10 µM) was 98% and 97.57% and the GI50 (HCT-116; Homo sapiens, five-dose screen) was 1800 nM. For the same compound, the “GI% (10^−5 M)” value (HT29; one-dose 10 µM) was 100 ^d,l %, the GI50 (HT29; Homo sapiens, HT-29, five-dose screen) was 1160 nM and the GI50 (KM12; Homo sapiens, five-dose screen) was 1260 nM. The “GI% (10^−5 M)” value (KM12; one-dose 10 µM) was 100 ^d,m %, the GI50 (SF-268; Homo sapiens, five-dose screen) was 1690 nM and the “GI% (10^−5 M)” value (SF-268; one-dose 10 µM) was 84.22%. The GI50 (SNB-19; Homo sapiens, five-dose screen) was 1720 nM, the “GI% (10^−5 M)” value (SNB-19; one-dose 10 µM) was 81.49% and the GI50 (SNB-75; Homo sapiens, five-dose screen) was 5960 nM. The “GI% (10^−5 M)” value (SNB-75; one-dose 10 µM) was 60.65%, the “GI% (10^−5 M)” value (DU-145; one-dose 10 µM) was 100 ^d,o % and the GI50 (DU-145; Homo sapiens, five-dose screen) was 1660 nM. For the same compound, the “GI% (10^−5 M)” value (LOX IMV1) was 1.55%, the “GI% (10^−5 M)” value (M14) was 1.68% and the “GI% (10^−5 M)” value (SK-MEL-28) was 1.65%. For the same compound, the “GI% (10^−5 M)” value (UACC-62) was 0.922%, the “GI% (10^−5 M)” value (A498; A498 (Renal Cancer), one-dose 10 µM) was 2.94% and the CC50 (A498; Homo sapiens, A498, five-dose screen, read-out: LC50 (the source's name)) was 32600 nM. For the same compound, the “GI% (10^−5 M)” value (MDA-MB-468) was 1.12%.
